The text below walks through data of patent publication US9447086B2, “6-amino acid heteroaryldihydropyrimidines for the treatment and prophylaxis of hepatitis B virus infection” (priority 2012, dated 2016).

Values after ≈ are worked out from the molar mass of the structure shown.

The subject of data set [1] is HBV. Put plainly: Anti-HBV activity in vitro in HepG2.2.15 cells (extracellular HBV DNA by qPCR). The format is cell-based, Hepatitis B virus. The conditions noted are these: Hepatitis B virus; HepG2.2.15 cells; in-house data; read-out: EC50. In short, it runs like this:
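Supernatant HBV DNA was measured by qPCR after viral DNA extraction. Samples came from 5-day cultures of HepG2.2.15 cells, an HBV-genome-transfected HepG2 line, exposed to half-log compound dilutions in medium containing 0.5% DMSO.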

Data set [2] is described as follows: Cytotoxicity (CC50) in HepDE19 cells, CCK-8 cell viability. It is filed as cell-based. The conditions noted are these: human, HepDE19 cells; read-out: CC50. An outline of the steps: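 HBV-transfected HepG2-derived HepDE19 cells grown in DMEM-F12 with 10% FBS and G418. Viability read five days after treatment by CCK-8, 2 h at 37 °C, absorbance at 450 and 630 nm.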

The test system of data set [3] is HBV. Put plainly: Selectivity index (CC50 value/EC50 value). The format is cell-based, Hepatitis B virus. In short, it runs like this: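 Ratio of CC50 to EC50, measuring antiviral activity against HBV relative to cytotoxicity in vitro; higher values indicate greater separation between viral inhibition and cell death.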
Data set [4] can be described thus: Metabolic stability study in human microsome. It is filed as in vitro ADME. In short, it runs like this:
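Depletion of 1 μM compound followed by LC-MS/MS over 0–30 min (0, 3, 6, 9, 15, 30 min) after methanol quench. Incubations at 37 °C, pH 7.4 phosphate buffer, 0.5 mg/mL microsomal protein, with NADPH (1 mM) or a regenerating system as cofactor; controls lacked cofactor.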

The nature of data set [5]: Lyophilisation solubility assay (Lysa). It is filed as physicochemical. The conditions noted are these: phosphate buffer, pH 6.5, aqueous buffer, thermodynamic from solid. An outline of the steps: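 Solubility in μg/mL is read by UV or HPLC-UV on filtrate, neat and diluted 1/10. Before filtration, the residue from evaporated 10 mM DMSO stock was taken up in pH 6.5 0.05 M phosphate buffer, then stirred 1 h, shaken 2 h and stood overnight, in duplicate.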

With `COC(=O)C1=C(CN2CCOC[C@H]2C(=O)O)NC(c2ncoc2C)=N[C@H]1c1ccc(F)cc1Br` [Example 65, (S)-4-[(R)-6-(2-Bromo-4-fluoro-phenyl)-5-methoxycarbonyl-2-(5-methyl-oxazol-4-yl)-3,6-dihydro-pyrimidin-4-ylmethyl]-morpholine-3-carboxylic acid], the concentration giving a half-maximal response (EC50) (commonly the concentration needed to bring the measured effect to its halfway point) in the data set with HBV [1] was determined as 0.0076 µM. In data set [2], the CC50 (in general, the concentration that lowers cell viability or growth by half) at 5 days is more than 100 µM. For the same compound, the “Selectivity index (CC50/EC50)” value in the data set with HBV [3] is on record as more than 13157. For the same compound, in data set [4], the “Human Hepatic Clearance” value is 0.1 L/h/kg. For the same compound, the thermodynamic solubility (in general, the concentration in solution at equilibrium with solid) in data set [5] is more than 0.678 mg/mL.
Consider `CCOC(=O)C1=C(CN2CC(F)(F)C[C@H]2C(=O)O)NC(c2nccs2)=N[C@H]1c1ccc(Br)cc1` [Example 130, (2S)-1-[[(4S)-4-(4-Bromophenyl)-5-ethoxycarbonyl-2-(1,3-thiazol-2-yl)-1,4-dihydropyrimidin-6-yl]methyl]-4,4-difluoropyrrolidine-2-carboxylic acid], for which the EC50 in the data set on HBV [1] came out at 0.006 µM. In data set [2], the 50% cytotoxic concentration (CC50) at 5 days stood at 17 µM. Further, in the data set with HBV [3], the “Selectivity index (CC50/EC50)” value is listed as 2833. Besides, the “Human Hepatic Clearance” value in data set [4] was 0.235 L/h/kg. Moreover, the thermodynamic solubility in data set [5] is more than 0.625 mg/mL.
Take `CCOC(=O)C1=C(CN2CCOC[C@H]2C(=O)O)NC(c2nccs2)=N[C@H]1c1ccc(F)cc1Br` [Example 122, (S)-4-(((R)-6-(2-Bromo-4-fluorophenyl)-5-(ethoxycarbonyl)-2-(thiazol-2-yl)-3,6-dihydropyrimidin-4-yl)methyl)morpholine-3-carboxylic acid]: the EC50 in the data set with HBV [1] stood at 0.0013 µM. Also, in data set [2], the 50% cytotoxic concentration (CC50) at 5 days was 73 µM. In the data set with HBV [3], the “Selectivity index (CC50/EC50)” value was found to be 55769. For the same compound, the “Human Hepatic Clearance” value in data set [4] was found to be 0.0948 L/h/kg. The same compound returned a thermodynamic solubility in data set [5] of more than 0.722 mg/mL.
As for `CCOC(=O)C1=C(CN2CC(F)(F)C[C@H]2C(=O)O)NC(c2nccs2)=N[C@H]1c1ccc(F)cc1Cl` [Example 34, (R)-6-((S)-2-Carboxy-4,4-difluoro-pyrrolidin-1-ylmethyl)-4-(2-chloro-4-fluoro-phenyl)-2-thiazol-2-yl-1,4-dihydro-pyrimidine-5-carboxylic acid ethyl ester], in the data set on HBV [1], the EC50 is 0.01 µM. For the same compound, the CC50 at 5 days in data set [2] was more than 100 µM. Besides, the “Selectivity index (CC50/EC50)” value in the data set on HBV [3] is more than 10000. Moreover, the “Human Hepatic Clearance” value in data set [4] came to 0.448 L/h/kg. The same compound displayed a solubility (thermodynamic) in data set [5] of 0.531 mg/mL (≈ 1000 µM).
As for `CCOC(=O)C1=C(CN2CC(F)(F)CC[C@H]2C(=O)O)NC(c2nccs2)=N[C@H]1c1ccc(F)cc1Br` [Example 107, (R)-4-(2-Bromo-4-fluoro-phenyl)-6-((S)-2-carboxy-5,5-difluoro-piperidin-1-ylmethyl)-2-thiazol-2-yl-1,4-dihydro-pyrimidine-5-carboxylic acid ethyl ester], the EC50 in the data set on HBV [1] is 0.0015 µM. The CC50 at 5 days in data set [2] was determined as 24 µM. The “Selectivity index (CC50/EC50)” value in the data set with HBV [3] came to 16000. For the same compound, the “Human Hepatic Clearance” value in data set [4] worked out at 0.113 L/h/kg. In data set [5], this compound came in with a thermodynamic solubility of 0.51 mg/mL (≈ 868 µM).
With `COC(=O)C1=C(CN2CC(F)(F)C[C@H]2C(=O)O)NC(c2ncoc2C)=N[C@H]1c1ccc(F)cc1Cl` [Example 102, (R)-6-((5)-2-Carboxy-4,4-difluoro-pyrrolidin-1-ylmethyl)-4-(2-chloro-4-fluoro-phenyl)-2-(5-methyl-oxazol-4-yl)-1,4-dihydro-pyrimidine-5-carboxylic acid methyl ester], the EC50 in the data set with HBV [1] was 0.009 µM. Moreover, the CC50 at 5 days in data set [2] worked out at 23 µM. The “Selectivity index (CC50/EC50)” value with HBV [3] is 2599. In addition, the “Human Hepatic Clearance” value in data set [4] turned out to be 0.0582 L/h/kg. Also, the solubility (thermodynamic) in data set [5] is more than 0.635 mg/mL.
For the compound `CCOC(=O)C1=C(CN2CCOC[C@H]2C(=O)O)NC(c2nccs2)=N[C@H]1c1ccc(F)c(F)c1` [Example 42, (S)-4-[(S)-6-(3,4-Difluoro-phenyl)-5-ethoxycarbonyl-2-thiazol-2-yl-3,6-dihydro-pyrimidin-4-ylmethyl]-morpholine-3-carboxylic acid], in the data set on HBV [1], the EC50 amounted to 0.01 µM. The CC50 at 5 days in data set [2] was more than 100 µM. In addition, the “Selectivity index (CC50/EC50)” value with HBV [3] is more than 10000. In data set [4], the “Human Hepatic Clearance” value came to 0.334 L/h/kg. Also, the solubility (thermodynamic) in data set [5] is more than 0.613 mg/mL.
Taken in the same sequence, the figures for `CCOC(=O)C1=C(CN2CC(F)(F)CC[C@H]2C(=O)O)NC(c2nccs2)=N[C@H]1c1ccccc1Cl` [Example 111, (R)-6-((S)-2-Carboxy-5,5-difluoro-piperidin-1-ylmethyl)-4-(2-chloro-phenyl)-2-thiazol-2-yl-1,4-dihydro-pyrimidine-5-carboxylic acid ethyl ester] were 0.0058 µM, more than 100 µM, 17241, 0.319 L/h/kg and more than 0.62 mg/mL.
Taken in the same sequence, the figures for `COC(=O)C1=C(CN2CC(F)(F)C[C@H]2C(=O)O)NC(c2nccs2)=N[C@H]1c1ccc(Cl)cc1Cl` [Example 85, (R)-6-((S)-2-Carboxy-4,4-difluoro-pyrrolidin-1-ylmethyl)-4-(2,4-dichloro-phenyl)-2-thiazol-2-yl-1,4-dihydro-pyrimidine-5-carboxylic acid methyl ester] were 0.0062 µM, 66 µM, 10694, 0.415 L/h/kg and more than 0.599 mg/mL.
Taken in the same sequence, the figures for `CCOC(=O)C1=C(CN2CCOC[C@H]2C(=O)O)NC(c2nccs2)=N[C@H]1c1ccc(Cl)c(F)c1` [Example 83, (S)-4-[(S)-6-(4-Chloro-3-fluoro-phenyl)-5-ethoxycarbonyl-2-thiazol-2-yl-3,6-dihydro-pyrimidin-4-ylmethyl]-morpholine-3-carboxylic acid] were 0.0015 µM, 25 µM, 16440, 0.106 L/h/kg and more than 0.652 mg/mL.
Regarding `COC(=O)C1=C(CN2CC(F)(F)C[C@H]2C(=O)O)NC(c2nccn2C)=N[C@H]1c1ccc(F)cc1Cl` [Example 32, (R)-6-((S)-2-Carboxy-4,4-difluoro-pyrrolidin-1-ylmethyl)-4-(2-chloro-4-fluoro-phenyl)-2-(1-methyl-1H-imidazol-2-yl)-1,4-dihydro-pyrimidine-5-carboxylic acid methyl ester], the concentration for a half-maximal effect (EC50) in the data set with HBV [1] was 0.013 µM. The 50% cytotoxic concentration (CC50) at 5 days in data set [2] turned out to be 40 µM. In addition, the “Selectivity index (CC50/EC50)” value in the data set on HBV [3] worked out at 3125. For the same compound, the “Human Hepatic Clearance” value in data set [4] amounted to 0.302 L/h/kg. In addition, the thermodynamic solubility in data set [5] amounted to 0.632 mg/mL (≈ 1230 µM).
On to `COC(=O)C1=C(CN2CCO[C@H](C)[C@H]2C(=O)O)NC(c2nccs2)=N[C@H]1c1ccc(F)c(F)c1F` [Example 114, (2R,3S)-4-[(R)-5-Methoxycarbonyl-2-thiazol-2-yl-6-(2,3,4-trifluoro-phenyl)-3,6-dihydro-pyrimidin-4-ylmethyl]-2-methyl-morpholine-3-carboxylic acid], for which the EC50 in the data set with HBV [1] was determined as 0.0093 µM. Besides, in data set [2], the CC50 at 5 days was more than 100 µM. The “Selectivity index (CC50/EC50)” value in the data set on HBV [3] was more than 10753. Besides, the “Human Hepatic Clearance” value in data set [4] came out at 0 L/h/kg. In data set [5], this compound came in with a solubility (thermodynamic) of more than 0.617 mg/mL.
As to `COC(=O)C1=C(CN2CCO[C@H](C)[C@H]2C(=O)O)NC(c2nccs2)=N[C@H]1c1ccc(F)c(F)c1` [Example 113, (2R,3S)-4-[(S)-6-(3,4-Difluoro-phenyl)-5-methoxycarbonyl-2-thiazol-2-yl-3,6-dihydro-pyrimidin-4-ylmethyl]-2-methyl-morpholine-3-carboxylic acid], the EC50 in the data set on HBV [1] was found to be 0.016 µM. In addition, the CC50 at 5 days in data set [2] was more than 100 µM. Further, in the data set on HBV [3], the “Selectivity index (CC50/EC50)” value is more than 6061. Besides, the “Human Hepatic Clearance” value in data set [4] was determined as 0 L/h/kg. Also, the thermodynamic solubility in data set [5] was more than 0.615 mg/mL.
Take `COC(=O)C1=C(CN2CC(F)(F)C[C@H]2C(=O)O)NC(c2nc(C(F)(F)F)cs2)=N[C@H]1c1ccc(F)cc1Cl` [Example 25, (R)-6-((S)-2-Carboxy-4,4-difluoro-pyrrolidin-1-ylmethyl)-4-(2-chloro-4-fluoro-phenyl)-2-(4-trifluoromethyl-thiazol-2-yl)-1,4-dihydro-pyrimidine-5-carboxylic acid methyl ester]: the EC50 in the data set with HBV [1] is 0.005 µM. For the same compound, in data set [2], the CC50 at 5 days was more than 100 µM. Also, the “Selectivity index (CC50/EC50)” value with HBV [3] is listed as more than 20000. In data set [4], the “Human Hepatic Clearance” value was found to be 0.56 L/h/kg. Also, the thermodynamic solubility in data set [5] worked out at 0.546 mg/mL (≈ 937 µM).
Regarding `CCOC(=O)C1=C(CN2CCOC[C@H]2C(=O)O)NC(c2ncoc2C)=N[C@H]1c1ccc(F)cc1Br` [Example 69, (S)-4-[(R)-6-(2-Bromo-4-fluoro-phenyl)-5-ethoxycarbonyl-2-(5-methyl-oxazol-4-yl)-3,6-dihydro-pyrimidin-4-ylmethyl]-morpholine-3-carboxylic acid], the EC50 in the data set on HBV [1] amounted to 0.006 µM. For the same compound, the CC50 at 5 days in data set [2] came to 57 µM. In the data set on HBV [3], the “Selectivity index (CC50/EC50)” value is listed as 9500. Also, the “Human Hepatic Clearance” value in data set [4] stood at 0 L/h/kg. In addition, in data set [5], the thermodynamic solubility is more than 0.658 mg/mL.
